In article PMC10616469, “Pharmacokinetics and tissue distribution of four major bioactive components of Cynanchum auriculatum extract: a UPLC–MS/MS study in normal and functional dyspepsia rats” (Frontiers in Pharmacology, 2023):
Read-outs that look alike come from different tables or passages of the source.

Assays:
[1] = Stability of the four compounds in plasma samples (QC samples); conditions: n = 5
Description: In a 1.5 mL EP tube, 100 μL of plasma sample was mixed with 10 µL 1% formic acid–water, 10 μL IS (0.2011 μg/mL), and 400 μL acetonitrile. The mixture was then vortexed for 5 min, followed by sonication for 10 min at 40 kHz and centrifugation at 14,000 rpm for 10 min. The supernatant obtained was transferred to another tube and evaporated to dryness under a nitrogen vacuum at 37°C. The residue obtained was reconstituted with 150 μL of the initial mobile phase, and the centrifugation process was repeated. The supernatant thus obtained was then used for further analysis.
Similarly, QC samples of three concentrations (low, medium, and high) were prepared.
The specificity of the method was evaluated by comparing the retention times of analytes and IS in the blank matrix, blank matrix spiked with the four analytes and IS, and the samples after oral administration of CA extract. Calibration curves were constructed by comparing the ratio of peak areas of the four analytes to that of IS versus the concentration of the four analytes. Calibration curves were fitted via linear weighted (1/X ^ 2 ) least–squares regression. The intra–and inter–day precision and accuracy were estimated by analyzing QC samples at different concentrations on the same day and three consecutive validation days, respectively. The extraction recovery was evaluated by determining the peak area of analytes in QC samples compared with that in extracted matrix samples. The relative standard deviation of the extraction recovery of analytes at each level was retained at ≤20.0%. The following parameters of stability were assessed: short–term stability (24 h at room temperature), processed sample stability (24 h at 4°C), freeze–thaw stability (3 cycles), and auto–sampler stability (6 h at room temperature). QC samples of different concentrations were used for stability analysis.

[2] = Stability of the four compounds in tissue homogenate samples (QC samples); conditions: mean ± s, n = 5
Description: (§1) Additionally, stomach and small intestinal tissues were diluted three times to obtain a tissue homogenate. Then, 300 μL of this tissue homogenate was mixed with 30 μL 1% formic acid-water, 20 μL IS, and 1.2 mL acetonitrile. The mixture was then vortexed for 5 min, sonicated for 10 min, and then stored at −20°C for 30 min. Subsequently, the mixture was centrifuged at 14,000 rpm for 10 min. The supernatant obtained was then transferred to another tube and evaporated to dryness at 37°C under nitrogen. The dried residue was reconstituted with 200 μL of the 50% methanol–water, and the centrifugation process was repeated. The obtained supernatant was then used for further analysis.
The appropriate amount of the reference substance was accurately weighed and dissolved in an appropriate amount of methanol to obtain stock solutions. The concentrations of the resulting stock solution were 0.9996 mg/mL for baishouwu benzophenone, 0.9518 mg/mL for deacylmetaplexigenin, 1.3660 mg/mL for qingyangshengenin, and 0.9898 mg/mL for syringic acid. Accurate volumes of each stock solution were mixed to obtain working solution, which was then serially diluted with methanol to provide standard working solutions. Similarly, QC samples of three concentrations (low, medium, and high) were prepared. All solutions were stored at −20°C for later use.
The following parameters of stability were assessed: short–term stability (24 h at room temperature), processed sample stability (24 h at 4°C), freeze–thaw stability (3 cycles), and auto–sampler stability (6 h at room temperature). QC samples of different concentrations were used for stability analysis.

[3] = PK study: plasma pharmacokinetics after oral administration of CA extract in normal and FD rats (UPLC-MS/MS); format: in vivo; conditions: Sprague-Dawley, rat; for AUC(0-inf) / AUC(0-t) / CL/F / Cmax / half-life: n = 6; for Vd/F: n = 6, read-out: Vz/F
Description: For PK experiments, an appropriate amount of the CA extract was weighed to prepare a 0.10 g/mL solution using physiological saline. Briefly, 12 SD rats were randomly assigned to normal and FD groups and were orally administered the prepared CA sample (10 mL/kg body weight). For assessment, 0.3 mL of blood was collected into heparinized tubes via the caudal vein before dosing and at 2, 5, 10, 15, 20, 30, and 45 min, and 1, 2, 4, 8, 12, 24, and 48 h after administration. Blood samples were then immediately centrifuged at 4,500 rpm for 15 min, and the obtained plasma samples were stored at −20°C until determination.
The PK parameters were analyzed using the non–compartment analysis using the WinNonLin 8.2 software (Phoenix, United States). All the data were expressed as mean ± standard deviation (SD). The normal and FD groups were compared using independent samples t–test in SPSS 22.0. Results with p values < 0.05 were considered statistically significant.

[4] = Tissue distribution study after oral administration of CA extract in normal and FD rats; conditions: distribution found in rat brain
Description: (§2) UPLC–MS/MS analysis was conducted using the ACQUITY UPLC system (Waters Corp., Milford, MA, United States) equipped with a Xevo–TQ mass spectrometer (Waters Corp., Milford, MA, United States) with an electrospray ionization (ESI) interface and triple quadrupole mass analyzer.
(§3) The ACQUITY UPLC® BEH C18 column (2.1 mm × 50 mm, 1.7 μm, Waters, United States) was used for separation and was maintained at 40°C. The mobile phase consisted of 0.1% formic acid in water (A) and 0.1% formic acid–acetonitrile (B) for PK study and 0.2% formic acid in water (A) and 0.2% formic acid–acetonitrile (B) for tissue distribution study. The mobile phase was eluted as a gradient, as follows: 0–0.5 min, 10% B; 0.5–3.0 min, 15% B; 3.0–3.2 min, 25% B; 3.2–4.0 min, 30% B; 4.0–4.5 min, 32% B; 4.5–6.0 min, 90% B; and 6.0 min, 10% B. The flow rate was set at 0.35 mL/min and the injection volume was 2 μL for the PK study and 1 μL for the tissue distribution study.
(§4) The four active components of CA were quantified using multiple reaction monitoring under negative ion mode. The following m/z transitions were chosen for quantification: baishouwu benzophenone 301.00→283.00, deacylmetaplexigenin 379.15→361.20, qingyangshengenin 499.20→137.00, syringic acid 197.20→181.95, and puerarin (internal standard, IS) 415.10→267.05. The collision energy was 15, 15, 35, 15, and 35 V, respectively ([Sun et al., 2022]). ESI mode was operated under the following conditions: capillary voltage, 1 kV; desolvation gas (N2), 1000 L/h; collision gas (Ar2), 150 L/h; desolvation temperature, 400°C; and source temperature, 120°C.
as §1
(§5) SD rats were randomly divided into normal and FD groups (n = 30 each) and orally administered 10 mL/kg of CA extract solution. The rats were sacrificed at 10, 30 min, 1, 2, and 4 h after administration (6 rats per time point). Subsequently, their heart, liver, spleen, lung, kidney, brain, small intestine, and stomach were removed. The tissue samples were then washed in saline solution and wiped with filter paper. Subsequently, all tissues were stored at −80°C until analysis.

[5] = rat, in vivo
Description: as §2, §3, §4, §1, §5

[6] = high QC (nominal 1666.00 / 3172.53 / 569.17 / 206.21 ng·mL^-1)
[7] = low QC (nominal 52.06 / 49.57 / 8.89 / 1.61 ng·mL^-1)
[8] = medium QC (nominal 208.25 / 396.57 / 71.13 / 25.78 ng·mL^-1)
[9] = Brain homogenate, highest QC (ng·mL^-1): Baishouwu benzophenone 131.10, Syringic acid 320.04, Qingyangshengenin 62.12, Deacylmetaplexigenin 677.19
[10] = Brain homogenate, lowest QC (ng·mL^-1): Baishouwu benzophenone 3.34, Syringic acid 8.18, Qingyangshengenin 1.58, Deacylmetaplexigenin 17.26
[11] = Brain homogenate, middle QC (ng·mL^-1): Baishouwu benzophenone 20.88, Syringic acid 51.14, Qingyangshengenin 9.90, Deacylmetaplexigenin 107.87
[12] = Heart homogenate, highest QC (ng·mL^-1): Baishouwu benzophenone 111.56, Syringic acid 340.93, Qingyangshengenin 350.76, Deacylmetaplexigenin 1522.88
[13] = Heart homogenate, lowest QC (ng·mL^-1): Baishouwu benzophenone 2.66, Syringic acid 8.11, Qingyangshengenin 8.35, Deacylmetaplexigenin 36.24
[14] = Heart homogenate, middle QC (ng·mL^-1): Baishouwu benzophenone 18.96, Syringic acid 57.96, Qingyangshengenin 59.63, Deacylmetaplexigenin 258.89
[15] = Kidney homogenate, highest QC (ng·mL^-1): Baishouwu benzophenone 768.40, Syringic acid 1230.44, Qingyangshengenin 844.98, Deacylmetaplexigenin 2249.71
[16] = Kidney homogenate, lowest QC (ng·mL^-1): Baishouwu benzophenone 9.84, Syringic acid 15.75, Qingyangshengenin 10.82, Deacylmetaplexigenin 28.80
[17] = Kidney homogenate, middle QC (ng·mL^-1): Baishouwu benzophenone 81.96, Syringic acid 131.25, Qingyangshengenin 90.13, Deacylmetaplexigenin 239.97
[18] = Liver homogenate, highest QC (ng·mL^-1): Baishouwu benzophenone 313.75, Syringic acid 268.07, Qingyangshengenin 4484.13, Deacylmetaplexigenin 3093.35
[19] = Liver homogenate, lowest QC (ng·mL^-1): Baishouwu benzophenone 1.77, Syringic acid 22.34, Qingyangshengenin 25.26, Deacylmetaplexigenin 16.38
[20] = Liver homogenate, middle QC (ng·mL^-1): Baishouwu benzophenone 27.19, Syringic acid 89.35, Qingyangshengenin 386.62, Deacylmetaplexigenin 268.09
[21] = Lung homogenate, highest QC (ng·mL^-1): Baishouwu benzophenone 630.29, Syringic acid 662.80, Qingyangshengenin 385.86, Deacylmetaplexigenin 1513.71
[22] = Lung homogenate, lowest QC (ng·mL^-1): Baishouwu benzophenone 17.66, Syringic acid 18.57, Qingyangshengenin 10.81, Deacylmetaplexigenin 42.42
[23] = Lung homogenate, middle QC (ng·mL^-1): Baishouwu benzophenone 105.98, Syringic acid 111.44, Qingyangshengenin 64.88, Deacylmetaplexigenin 254.52
[24] = Small intestine homogenate, highest QC (ng·mL^-1): Baishouwu benzophenone 39.22, Syringic acid 773.28, Qingyangshengenin 1726.39, Deacylmetaplexigenin 1206.41
[25] = Small intestine homogenate, lowest QC (ng·mL^-1): Baishouwu benzophenone 0.46, Syringic acid 9.31, Qingyangshengenin 20.77, Deacylmetaplexigenin 14.52
[26] = Small intestine homogenate, middle QC (ng·mL^-1): Baishouwu benzophenone 4.97, Syringic acid 97.95, Qingyangshengenin 218.68, Deacylmetaplexigenin 152.81
[27] = Spleen homogenate, highest QC (ng·mL^-1): Baishouwu benzophenone 658.88, Syringic acid 752.66, Qingyangshengenin 418.52, Deacylmetaplexigenin 1979.74
[28] = Spleen homogenate, lowest QC (ng·mL^-1): Baishouwu benzophenone 10.98, Syringic acid 12.54, Qingyangshengenin 6.98, Deacylmetaplexigenin 33.00
[29] = Spleen homogenate, middle QC (ng·mL^-1): Baishouwu benzophenone 87.85, Syringic acid 100.35, Qingyangshengenin 55.80, Deacylmetaplexigenin 263.97
[30] = Stomach homogenate, highest QC (ng·mL^-1): Baishouwu benzophenone 47.06, Syringic acid 257.76, Qingyangshengenin 1285.45, Deacylmetaplexigenin 1665.65
[31] = Stomach homogenate, lowest QC (ng·mL^-1): Baishouwu benzophenone 0.63, Syringic acid 3.44, Qingyangshengenin 17.14, Deacylmetaplexigenin 22.21
[32] = Stomach homogenate, middle QC (ng·mL^-1): Baishouwu benzophenone 6.28, Syringic acid 34.37, Qingyangshengenin 171.39, Deacylmetaplexigenin 222.09
[33] = FD group rats, oral CA extract (0.10 g/mL solution, 10 mL/kg)
[34] = Normal group rats, oral CA extract (0.10 g/mL solution, 10 mL/kg)

With `CC(=O)C1(O)CCC2(O)C3(O)CC=C4CC(O)CCC4(C)C3CC(O)C12C` (stereo not shown) [Deacylmetaplexigenin] the “Measured concentration, 4°C for 24 h” value [1, 6] was 3164.75 ± 84.97 ng/mL, the “Measured concentration, Three freeze-thaw cycles” value [1, 6] was 3053.63 ± 57.47 ng/mL and the “Measured concentration, 4°C for 24 h” value [1, 7] was 52.01 ± 2.68 ng/mL. The “Measured concentration, Three freeze-thaw cycles” value [1, 7] was 53.08 ± 3.47 ng/mL, the “Measured concentration, 4°C for 24 h” value [1, 8] was 406.61 ± 10.59 ng/mL and the “Measured concentration, Three freeze-thaw cycles” value [1, 8] was 352.32 ± 6.40 ng/mL. The “Auto-sampler for 6 h Measured concentration” value (“Auto-sampler” for short) [2, 9] was 639.39 ± 12.53 ng/mL, the “Three freeze-thaw cycles Measured concentration” value [2, 9] was 657.30 ± 18.60 ng/mL and the “Auto-sampler” value [2, 10] was 16.37 ± 0.20 ng/mL. For the same compound, the “Three freeze-thaw cycles Measured concentration” value [2, 10] was 16.11 ± 0.43 ng/mL, the “Auto-sampler” value [2, 11] was 106.81 ± 0.35 ng/mL and the “Three freeze-thaw cycles Measured concentration” value [2, 11] was 107.57 ± 1.64 ng/mL. For the same compound, the “Auto-sampler” value [2, 12] was 1545.69 ± 28.28 ng/mL, the “Three freeze-thaw cycles Measured concentration” value [2, 12] was 1530.72 ± 31.74 ng/mL and the “Auto-sampler” value [2, 13] was 29.91 ± 0.63 ng/mL. For the same compound, the “Three freeze-thaw cycles Measured concentration” value [2, 13] was 30.14 ± 0.33 ng/mL, the “Auto-sampler” value [2, 14] was 253.92 ± 7.65 ng/mL and the “Three freeze-thaw cycles Measured concentration” value [2, 14] was 251.51 ± 4.47 ng/mL. The “Auto-sampler” value [2, 15] was 2268.44 ± 53.12 ng/mL, the “Three freeze-thaw cycles Measured concentration” value [2, 15] was 2270.72 ± 48.43 ng/mL and the “Auto-sampler” value [2, 16] was 30.96 ± 0.89 ng/mL. The “Three freeze-thaw cycles Measured concentration” value [2, 16] was 30.51 ± 1.21 ng/mL, the “Auto-sampler” value [2, 17] was 267.87 ± 13.29 ng/mL and the “Three freeze-thaw cycles Measured concentration” value [2, 17] was 266.54 ± 9.78 ng/mL. The “Auto-sampler” value [2, 18] was 3350.30 ± 128.16 ng/mL, the “Three freeze-thaw cycles Measured concentration” value [2, 18] was 3302.83 ± 129.48 ng/mL and the “Auto-sampler” value [2, 19] was 15.66 ± 0.68 ng/mL. For the same compound, the “Three freeze-thaw cycles Measured concentration” value [2, 19] was 15.51 ± 0.68 ng/mL, the “Auto-sampler” value [2, 20] was 249.04 ± 7.02 ng/mL and the “Three freeze-thaw cycles Measured concentration” value [2, 20] was 245.11 ± 4.40 ng/mL. The “Auto-sampler” value [2, 21] was 1544.16 ± 36.02 ng/mL, the “Three freeze-thaw cycles Measured concentration” value [2, 21] was 1549.77 ± 41.79 ng/mL and the “Auto-sampler” value [2, 22] was 38.33 ± 2.37 ng/mL. For the same compound, the “Three freeze-thaw cycles Measured concentration” value [2, 22] was 37.62 ± 2.38 ng/mL, the “Auto-sampler” value [2, 23] was 243.55 ± 12.09 ng/mL and the “Three freeze-thaw cycles Measured concentration” value [2, 23] was 240.11 ± 10.98 ng/mL. The “Auto-sampler” value [2, 24] was 1293.63 ± 65.40 ng/mL, the “Three freeze-thaw cycles Measured concentration” value [2, 24] was 1296.24 ± 110.99 ng/mL and the “Auto-sampler” value [2, 25] was 12.77 ± 1.27 ng/mL. For the same compound, the “Three freeze-thaw cycles Measured concentration” value [2, 25] was 12.39 ± 1.33 ng/mL, the “Auto-sampler” value [2, 26] was 150.09 ± 2.73 ng/mL and the “Three freeze-thaw cycles Measured concentration” value [2, 26] was 154.01 ± 1.23 ng/mL. For the same compound, the “Auto-sampler” value [2, 27] was 1990.73 ± 48.18 ng/mL, the “Three freeze-thaw cycles Measured concentration” value [2, 27] was 1950.06 ± 62.22 ng/mL and the “Auto-sampler” value [2, 28] was 31.95 ± 1.48 ng/mL. The “Three freeze-thaw cycles Measured concentration” value [2, 28] was 32.15 ± 1.58 ng/mL, the “Auto-sampler” value [2, 29] was 232.19 ± 3.53 ng/mL and the “Three freeze-thaw cycles Measured concentration” value [2, 29] was 247.56 ± 6.23 ng/mL. For the same compound, the “Auto-sampler” value [2, 30] was 1622.87 ± 76.11 ng/mL, the “Three freeze-thaw cycles Measured concentration” value [2, 30] was 1662.82 ± 50.13 ng/mL and the “Auto-sampler” value [2, 31] was 21.14 ± 1.50 ng/mL. For the same compound, the “Three freeze-thaw cycles Measured concentration” value [2, 31] was 21.58 ± 1.95 ng/mL, the “Auto-sampler” value [2, 32] was 244.68 ± 7.59 ng/mL and the “Three freeze-thaw cycles Measured concentration” value [2, 32] was 245.34 ± 9.19 ng/mL. The Tmax ([3]; 1 g/kg, oral CA extract, normal and FD rats, read-out: time of peak concentration (Tmax)) was 20 to 30 min, the AUC(0-inf) [3, 33] was 13900 ng·h/mL and the AUC(0-t) [3, 33] was 13300 ng·h/mL. The CL/F [3, 33] was 16.5 mL/min/kg, the Cmax [3, 33] was 4510 ± 241 ng/mL and the half-life [3, 33] was 772 ± 454 min. It also gave a Tmax ([3]; FD group rats, oral CA extract (0.10 g/mL solution, 10 mL/kg), n = 6, read-out: Tmax) of 19.8 ± 4.8 min, a Vd/F [3, 33] of 18.1 ± 10.6 L/kg and an AUC(0-inf) [3, 34] of 12300 ng·h/mL. It also gave an AUC(0-t) [3, 34] of 11600 ng·h/mL, a CL/F [3, 34] of 19.2 mL/min/kg and a Cmax [3, 34] of 4680 ± 499 ng/mL. For the same compound, the half-life [3, 34] was 602 ± 190 min, the Tmax ([3]; Normal group rats, oral CA extract (0.10 g/mL solution, 10 mL/kg), n = 6, read-out: Tmax) was 25.2 ± 6.6 min and the Vd/F [3, 34] was 16 ± 3.79 L/kg. The “crossing of the blood-brain barrier” value [4] was “could cross the blood-brain barrier”, the “time after oral administration at which almost completely metabolized in tissues” value ([5]; Sprague-Dawley) was 4 h and the “time of peak in most of organ tissues” value ([5]; Sprague-Dawley, po) was 0.17 to 0.5 h. For the same compound, the “tissue with the highest concentration” value ([5]; po) was “stomach and small intestine”.
